According to patent US5837483A, “Enzymatic method for producing N-formyl-α-L-aspartyl-L-phenylalanine methyl ester” (Holland Sweetener Company V.o.F., priority 1996, dated 1998):
Residues, ends and D or L forms follow the SMILES beside them. *: point of attachment. For = O=C*

Tests used:
[1] = Batchwise biphase condensation reaction: F-APM in aqueous and organic phase by HPLC; format: physicochemical; settings: tributyl phosphoric acid/aqueous enzyme solution pH=6.5, 40° C
Experimental: This example was carried out by batchwise operation in biphase system of aqueous phase and organic phase.
An enzyme aqueous solution of pH=6.5 containing 1.131 g/l of thermoase, 0.1M buffer agent (MES) and 0.01M CaCl2, and substrate tributyl phosphoric acid solution containing 88.15 mM of F-L-Asp and 120.97 mM of L-PM were prepared separately and were maintained at 40° C. Both 5 ml's of two solutions were mixed and the condensation reaction between F-L-Asp and L-PM was started. Concentrations of F-L-Asp, L-PM and F-APM were analyzed by HPLC.

[2] = Partition of F-APM between water-immiscible organic solvent and aqueous phase (distribution ratio, eq. 1); format: physicochemical; settings: for PF-APM / pKa: 40° C; for pKa: read-out: pKF-APM
Description: The water-immiscible solvents of which distribution ratios (DF-APM) described by following equation (1) are 10^-2 or more at pH=6.0 are suitable for effective the extraction of the F-APM produced to the organic phase: [formula] wherein
PF-APM =(CF-APM)org /(CF-APM)aq (1a);
KF-APM ={(CF-APM.spsb.-)aq ×CH.spsb.+
(CF-APM)org : concentration of F-APM contained in the organic phase after the extraction of F-APM;
(CF-APM)aq : concentration of F-APM remained in the aqueous phase after the extraction of F-APM;
(CF-APM.spsb.-)aq : concentration of F-APM^- remained in the aqueous phase after the extraction of F-APM;
CH.spsb.+ : concentration of H^+ remained in the aqueous phase after the extraction of F-APM.
Above PF-APM and KF-APM were obtained by following partition model of F-APM described by following scheme 1. [drawing 1]
Furthermore, above equation (1) was obtained by relation described by following equation (3). [formula]
(§1) 10 ml of organic solvent saturated by water and 10 ml of aqueous solution saturated by organic solvent were entered into sample tube, and 50 mM of F-L-Asp was dissolved in said organic solvent saturated by water and 50 mM of F-APM was dissolved in said aqueous solution saturated by organic solvent.
As a value showing the ability of organic solvent to extract F-APM from aqueous phase, DF-ApM described by equation (1) were used.
(§2) Measurements of these PF-APM and PF-L-Asp were carried out at 40° C.
(§3) DF-APM values of many kinds of organic solvent are shown in Table 1 wherein methyl isobutyl ketone, n-butylformate and butyl acetate are shown as comparative examples, and DF-L-Asp values of many kinds of organic solvent are shown in Table 2.

[3] = Partition of F-L-Asp between water-immiscible organic solvent and aqueous phase (distribution ratio, eq. 2); format: physicochemical; settings: for PF-A-Asp / pKa: 40° C
Description: Moreover, organic solvents of which distribution ratios of F-L-Asp (DF-L-Asp) described by following equation (2) are 10^-4 or less at pH=6.0 are suitable for increase of conversion ratios to F-APM because large amount of F-L-Asp can be distributed in aqueous phase: [formula] wherein
PF-L-Asp =(CF-L-Asp)org /(CF-L-Asp)aq(2a);
KF-L-Asp1 ={(Cf-L-Asp.spsb.-)aq ×CH.spsb.+
KF-l=Asp2 ={(CF-L-Asp.spsb.2-)aq ×CH.spsb.+
}/(CF-L-Asp.spsb.-)aq (2c);
(CF-L-Asp)org : concentration of F-L-Asp contained in the organic phase after the extraction of F-APM;
(CF-L-Asp)aq : concentration of F-L-Asp remained in the aqueous phase after the extraction of F-APM;
(CF-L-Asp.spsb.-)aq : concentration of F-L-Asp^- remained in the aqueous phase after the extraction of F-APM;
CH.spsb.+ : concentration of H^+ remained in the aqueous phase after the extraction of F-APM;
(CF-L-Asp.spsb.2-)aq : concentration of F-L-Asp^2- remained in the aqueous phase after the extraction of F-APM.
PF-L-Asp, KF-L-Asp1 and KF-L-Asp2 were obtained by the partition model of F-L-Asp described by following scheme 2: [drawing 2]
Furthermore, above equation (2) was obtained by following equation (4): [formula]
as §1
As a value showing the ability to suppress transfer of F-L-Asp from aqueous phase to organic phase, DF-L-Asp described by equation (2) was used.
as §2, §3

[4] = relative to cane sugar; cited from earlier work
[5] = butylacetate/water (comparative)
[6] = methyl ethyl ketone/water, pH = 5
[7] = methyl ethyl ketone/water, pH = 6
[8] = methyl ethyl ketone/water, pH = 7
[9] = methyl isobutyl ketone/water (comparative)
[10] = n-butylformate/water (comparative)
[11] = tri-butylphosphoric acid, n-amylalcohol, t-amylalcohol, 1-butanol, methyl ethyl ketone and isobutanol, pH=6.0
[12] = tri-butylphosphoric acid/water, pH = 5
[13] = tri-butylphosphoric acid/water, pH = 6
[14] = tri-butylphosphoric acid/water, pH = 7

Question: Which “transfer of F-APM produced to the organic phase” value [1] does the source give for `COC(=O)[C@H](Cc1ccccc1)NC(=O)[C@H](CC(=O)O)NC=O` [F-APM, N-formyl-α-L-aspartyl-L-phenylalanine methyl ester] (For-Asp-Phe-OMe) here?
Answer: all F-APM produced were transferred to the organic phase

Question: What about the PF-APM ([2]; 1-butanol/water) of the same compound?
Answer: 7.13

Question: And the pKa ([2]; 1-butanol/water)?
Answer: 4.17

Question: And the DF-APM ([2]; 1-butanol/water, pH = 5)?
Answer: 0.919

Question: What about the DF-APM ([2]; 1-butanol/water, pH = 6) of the same compound?
Answer: 0.101

Question: What about the DF-APM ([2]; 1-butanol/water, pH = 7) of the same compound?
Answer: 0.0105

Question: And the PF-APM [2, 5]?
Answer: 0.47

Question: And the pKa [2, 5]?
Answer: 4.02

Question: And the DF-APM ([2]; butylacetate/water (comparative), pH = 5)?
Answer: 0.045

Question: What about the DF-APM ([2]; butylacetate/water (comparative), pH = 6) of the same compound?
Answer: 0.0049

Question: What about the DF-APM ([2]; butylacetate/water (comparative), pH = 7) of the same compound?
Answer: 0.00049

Question: What about the PF-APM ([2]; methyl ethyl ketone/water) of the same compound?
Answer: 2.14

Question: What about the pKa ([2]; methyl ethyl ketone/water) of the same compound?
Answer: 4.61

Question: And the DF-APM [2, 6]?
Answer: 0.556

Question: And the DF-APM [2, 7]?
Answer: 0.087

Question: What about the DF-APM [2, 8] of the same compound?
Answer: 0.0087

Question: And the PF-APM [2, 9]?
Answer: 0.80

Question: What about the pKa [2, 9] of the same compound?
Answer: 4.01

Question: What about the DF-APM ([2]; methyl isobutyl ketone/water (comparative), pH = 5) of the same compound?
Answer: 0.074

Question: And the DF-APM ([2]; methyl isobutyl ketone/water (comparative), pH = 6)?
Answer: 0.0080

Question: And the DF-APM ([2]; methyl isobutyl ketone/water (comparative), pH = 7)?
Answer: 0.00082

Question: And the PF-APM ([2]; n-amylalcohol/water)?
Answer: 3.70

Question: And the pKa ([2]; n-amylalcohol/water)?
Answer: 4.22

Question: And the DF-APM ([2]; n-amylalcohol/water, pH = 5)?
Answer: 0.527

Question: What about the DF-APM ([2]; n-amylalcohol/water, pH = 6) of the same compound?
Answer: 0.0604

Question: What about the DF-APM ([2]; n-amylalcohol/water, pH = 7) of the same compound?
Answer: 0.0061

Question: What about the PF-APM [2, 10] of the same compound?
Answer: 0.64

Question: What about the pKa [2, 10] of the same compound?
Answer: 4.17

Question: And the DF-APM ([2]; n-butylformate/water (comparative), pH = 5)?
Answer: 0.083

Question: And the DF-APM ([2]; n-butylformate/water (comparative), pH = 6)?
Answer: 0.0091

Question: What about the DF-APM ([2]; n-butylformate/water (comparative), pH = 7) of the same compound?
Answer: 0.0012

Question: What about the PF-APM ([2]; t-amylalcohol/water) of the same compound?
Answer: 6.89

Question: What about the pKa ([2]; t-amylalcohol/water) of the same compound?
Answer: 4.21

Question: What about the DF-APM ([2]; t-amylalcohol/water, pH = 5) of the same compound?
Answer: 0.866

Question: What about the DF-APM ([2]; t-amylalcohol/water, pH = 6) of the same compound?
Answer: 0.107

Question: And the DF-APM ([2]; t-amylalcohol/water, pH = 7)?
Answer: 0.0111

Question: What about the “DF-APM values at pH=6.0” value [2, 11] of the same compound?
Answer: ≥ 1×10^-2

Question: And the PF-APM ([2]; tri-butylphosphoric acid/water)?
Answer: 13.0

Question: And the pKa ([2]; tri-butylphosphoric acid/water)?
Answer: 4.01

Question: What about the DF-APM [2, 12] of the same compound?
Answer: 1.20

Question: And the DF-APM [2, 13]?
Answer: 0.13

Question: And the DF-APM [2, 14]?
Answer: 0.0133

Question: What does the source list for `O=CN[C@@H](CC(=O)O)C(=O)O` [F-L-Asp, N-formyl-L-aspartic acid]?
Answer: PF-A-Asp ([3]; 1-butanol/water): 0.424; pKa ([3]; 1-butanol/water, read-out: pKF-L-Asp1): 2.99; pKa ([3]; 1-butanol/water, read-out: pKF-L-Asp2): 4.83; DF-L-Asp ([3]; 1-butanol/water, pH = 5): 16.6 ×10^-4; DF-L-Asp ([3]; 1-butanol/water, pH = 6): 0.262 ×10^-4; DF-L-Asp ([3]; 1-butanol/water, pH = 7): 0.00278 ×10^-4; PF-A-Asp ([3]; isobutanol/water): 0.356; pKa ([3]; isobutanol/water, read-out: pKF-L-Asp1): 3.11; pKa ([3]; isobutanol/water, read-out: pKF-L-Asp2): 4.44; DF-L-Asp ([3]; isobutanol/water, pH = 5): 9.9 ×10^-4; DF-L-Asp ([3]; isobutanol/water, pH = 6): 0.123 ×10^-4; DF-L-Asp ([3]; isobutanol/water, pH = 7): 0.00125 ×10^-4; PF-A-Asp ([3]; methyl ethyl ketone/water): 0.296; pKa ([3]; methyl ethyl ketone/water, read-out: pKF-L-Asp1): 3.43; pKa ([3]; methyl ethyl ketone/water, read-out: pKF-L-Asp2): 4.43; DF-L-Asp [3, 6]: 16.0 ×10^-4; DF-L-Asp [3, 7]: 0.201 ×10^-4; DF-L-Asp [3, 8]: 0.00206 ×10^-4; PF-A-Asp ([3]; n-amylalcohol/water): 0.166; pKa ([3]; n-amylalcohol/water, read-out: pKF-L-Asp1): 2.95; pKa ([3]; n-amylalcohol/water, read-out: pKF-L-Asp2): 4.17; DF-L-Asp ([3]; n-amylalcohol/water, pH = 5): 1.9 ×10^-4; DF-L-Asp ([3]; n-amylalcohol/water, pH = 6): 0.0216 ×10^-4; DF-L-Asp ([3]; n-amylalcohol/water, pH = 7): 0.00021 ×10^-4; PF-A-Asp ([3]; t-amylalcohol/water): 0.498; pKa ([3]; t-amylalcohol/water, read-out: pKF-L-Asp1): 3.16; pKa ([3]; t-amylalcohol/water, read-out: pKF-L-Asp2): 4.63; DF-L-Asp ([3]; t-amylalcohol/water, pH = 5): 21.4 ×10^-4; DF-L-Asp ([3]; t-amylalcohol/water, pH = 6): 0.294 ×10^-4; DF-L-Asp ([3]; t-amylalcohol/water, pH = 7): 0.00305 ×10^-4; pKa ([3]; tri-butyl phosphoric acid/water, read-out: pKF-L-Asp1): 3.18; pKa ([3]; tri-butyl phosphoric acid/water, read-out: pKF-L-Asp2): 4.44; DF-L-Asp values at pH=6.0 [3, 11]: ≤ 1×10^-4; PF-A-Asp ([3]; tri-butylphosphoric acid/water): 0.558; DF-L-Asp [3, 12]: 18.2 ×10^-4; DF-L-Asp [3, 13]: 0.226 ×10^-4; DF-L-Asp [3, 14]: 0.00231 ×10^-4

Question: With `COC(=O)[C@H](Cc1ccccc1)NC(=O)[C@@H](N)CC(=O)O` [aspartame, α-L-Aspartyl-L-phenylalanine methyl ester] (H-Asp-Phe-OMe) as the compound, how does the “sweetness of cane sugar” value [4] read?
Answer: about 200 times
